Source: PubChem BioAssay AID1259407 (Chemical Carcinogenesis Research Information System (CCRIS), 2018)
Calls of active or inactive are those of the source. How the calls were made is not given here.

System: CCRIS mutagenicity, Ames/micronucleus/aberration tests
Assay: CCRIS mutagenicity studies
[1] = Test System: AMES SALMONELLA TYPHIMURIUM, Strain/Indicator: TA100, Metabolic Activation: NONE, Method: STANDARD PLATE
[2] = Test System: AMES SALMONELLA TYPHIMURIUM, Strain/Indicator: TA98, Metabolic Activation: NONE, Method: PREINCUBATION (KCL-CONTAINING MEDIUM)
[3] = Test System: AMES SALMONELLA TYPHIMURIUM, Strain/Indicator: TA98, Metabolic Activation: NONE, Method: PREINCUBATION (KCL-FREE MEDIUM)
[4] = Test System: AMES SALMONELLA TYPHIMURIUM, Strain/Indicator: TA98, Metabolic Activation: NONE, Method: PREINCUBATION
[5] = Test System: AMES SALMONELLA TYPHIMURIUM, Strain/Indicator: TA100, Metabolic Activation: NONE, Method: PREINCUBATION

SMILES: CC(C)(C)N(CCO)CCO
- mutagenic call (Test System: AMES SALMONELLA TYPHIMURIUM, Strain/Indicator: TA98, Metabolic Activation: NONE, Method: STANDARD PLATE): inactive; negative
- mutagenic call (Test System: AMES SALMONELLA TYPHIMURIUM, Strain/Indicator: TA98, Metabolic Activation: RAT, LIVER, S-9, AROCLOR 1254, Method: STANDARD PLATE): inactive; negative
- mutagenic call [1]: inactive; negative
- mutagenic call (Test System: AMES SALMONELLA TYPHIMURIUM, Strain/Indicator: TA100, Metabolic Activation: RAT, LIVER, S-9, AROCLOR 1254, Method: STANDARD PLATE): inactive; negative
- mutagenic call (Test System: AMES SALMONELLA TYPHIMURIUM, Strain/Indicator: TA1535, Metabolic Activation: NONE, Method: STANDARD PLATE): inactive; negative
- mutagenic call (Test System: AMES SALMONELLA TYPHIMURIUM, Strain/Indicator: TA1535, Metabolic Activation: RAT, LIVER, S-9, AROCLOR 1254, Method: STANDARD PLATE): inactive; negative
- mutagenic call (Test System: AMES SALMONELLA TYPHIMURIUM, Strain/Indicator: TA1537, Metabolic Activation: NONE, Method: STANDARD PLATE): inactive; negative
- mutagenic call (Test System: AMES SALMONELLA TYPHIMURIUM, Strain/Indicator: TA1537, Metabolic Activation: RAT, LIVER, S-9, AROCLOR 1254, Method: STANDARD PLATE): inactive; negative
- mutagenic call (Test System: AMES SALMONELLA TYPHIMURIUM, Strain/Indicator: TA1538, Metabolic Activation: NONE, Method: STANDARD PLATE): inactive; negative
- mutagenic call (Test System: AMES SALMONELLA TYPHIMURIUM, Strain/Indicator: TA1538, Metabolic Activation: RAT, LIVER, S-9, AROCLOR 1254, Method: STANDARD PLATE): inactive; negative
- mutagenic call (Test System: CHINESE HAMSTER OVARY, Strain/Indicator: CHO-K1-BH4, Metabolic Activation: NONE): inactive; negative
- mutagenic call (Test System: CHINESE HAMSTER OVARY, Strain/Indicator: CHO-K1-BH4, Metabolic Activation: RAT, LIVER, S-9, AROCLOR 1254): inactive; negative

SMILES: c1ccc2c(c1)-c1c(ccc3ccccc13)C1OC21 (configuration not stated)
- mutagenic call [2]: active; positive
- mutagenic call [3]: active; positive
- mutagenic call (Test System: AMES SALMONELLA TYPHIMURIUM, Strain/Indicator: TA100, Metabolic Activation: NONE, Method: PREINCUBATION (KCL-CONTAINING MEDIUM)): active; positive
- mutagenic call (Test System: AMES SALMONELLA TYPHIMURIUM, Strain/Indicator: TA100, Metabolic Activation: NONE, Method: PREINCUBATION (KCL-FREE MEDIUM)): active; positive

SMILES: C[C@H](CCC(=O)O)[C@H]1CC[C@H]2[C@@H]3CCc4cc(O)ccc4[C@H]3CC[C@]12C
- mutagenic call [4]: inactive; negative
- mutagenic call (Test System: AMES SALMONELLA TYPHIMURIUM, Strain/Indicator: TA98, Method: PREINCUBATION): inactive; negative
- mutagenic call (Test System: AMES SALMONELLA TYPHIMURIUM, Strain/Indicator: TA100, Method: PREINCUBATION): inactive; negative

SMILES: CCCCC(C)=O
- mutagenic call (Test System: CHINESE HAMSTER V-79, Strain/Indicator: V-79 (HPRT)/6-THIOGUANINE, Metabolic Activation: NONE, Method: STANDARD PLATE): inactive; negative
- mutagenic call (Test System: CHINESE HAMSTER V-79, Strain/Indicator: V-79 (HPRT)/6-THIOGUANINE, Metabolic Activation: RAT LIVER S-9, Method: STANDARD PLATE): inactive; negative

SMILES: CCNC(=O)CNC(=O)C=[N+]=[N-]
- mutagenic call (Test System: UDS RODENT CELLS, Strain/Indicator: THY INCORP (NON-S-PHASE), Metabolic Activation: NONE, Method: AUTORADIOGRAPHY): active; positive

SMILES: c1ccc2c(c1)-c1c(c3ccccc3c3ccccc13)C1NC21 (configuration not stated)
- mutagenic call [2]: active; positive
- mutagenic call [3]: active; positive
- mutagenic call (Test System: AMES SALMONELLA TYPHIMURIUM, Strain/Indicator: TA100, Metabolic Activation: NONE, Method: PREINCUBATION (KCL-CONTAINING OR KCL-FREE MEDIA)): active; positive

SMILES: O=C(O)/C=C/C=C/C(=O)O
- mutagenic call (End Point: IN VITRO CHROMOSOMAL ABERRATIONS, Test System: HUMAN PERIPHERAL LYMPHOCYTES, Metabolic Activation: NONE): active; positive (ploidy changes)
- mutagenic call (End Point: IN VITRO CHROMOSOMAL ABERRATIONS, Test System: HUMAN PERIPHERAL LYMPHOCYTES, Metabolic Activation: NONE, Method: FISH- DUAL COLOR PROBES): inactive; negative for translocations
- mutagenic call (Test System: AMES SALMONELLA TYPHIMURIUM, Strain/Indicator: TA97, Metabolic Activation: NONE, Method: PREINCUBATION): inactive; negative
- mutagenic call (Test System: AMES SALMONELLA TYPHIMURIUM, Strain/Indicator: TA97, Metabolic Activation: RAT, LIVER, S-9, AROCLOR 1254, Method: PREINCUBATION): inactive; negative
- mutagenic call (Test System: AMES SALMONELLA TYPHIMURIUM, Strain/Indicator: TA97, Metabolic Activation: RAT, LIVER, S-9, PHENOBARBITAL AND 5,6-BENZOFLAVONE, Method: PREINCUBATION): inactive; negative
- mutagenic call [4]: inactive; negative
- mutagenic call (Test System: AMES SALMONELLA TYPHIMURIUM, Strain/Indicator: TA98, Metabolic Activation: RAT, LIVER, S-9, AROCLOR 1254, Method: PREINCUBATION): inactive; negative
- mutagenic call (Test System: AMES SALMONELLA TYPHIMURIUM, Strain/Indicator: TA98, Metabolic Activation: RAT, LIVER, S-9, PHENOBARBITAL AND 5,6-BENZOFLAVONE, Method: PREINCUBATION): inactive; negative
- mutagenic call [5]: inactive; negative
- mutagenic call (Test System: AMES SALMONELLA TYPHIMURIUM, Strain/Indicator: TA100, Metabolic Activation: RAT, LIVER, S-9, AROCLOR 1254, Method: PREINCUBATION): inactive; negative
- mutagenic call (Test System: AMES SALMONELLA TYPHIMURIUM, Strain/Indicator: TA100, Metabolic Activation: RAT, LIVER, S-9, PHENOBARBITAL AND 5,6-BENZOFLAVONE, Method: PREINCUBATION): inactive; negative
- mutagenic call (Test System: AMES SALMONELLA TYPHIMURIUM, Strain/Indicator: TA102, Metabolic Activation: NONE, Method: PREINCUBATION): inactive; negative
- mutagenic call (Test System: AMES SALMONELLA TYPHIMURIUM, Strain/Indicator: TA102, Metabolic Activation: RAT, LIVER, S-9, AROCLOR 1254, Method: PREINCUBATION): inactive; negative
- mutagenic call (Test System: AMES SALMONELLA TYPHIMURIUM, Strain/Indicator: TA102, Metabolic Activation: RAT, LIVER, S-9, PHENOBARBITAL AND 5,6-BENZOFLAVONE, Method: PREINCUBATION): inactive; negative
- mutagenic call (Test System: AMES SALMONELLA TYPHIMURIUM, Strain/Indicator: TA104, Metabolic Activation: NONE, Method: PREINCUBATION): inactive; negative
- mutagenic call (Test System: AMES SALMONELLA TYPHIMURIUM, Strain/Indicator: TA104, Metabolic Activation: RAT, LIVER, S-9, AROCLOR 1254, Method: PREINCUBATION): inactive; negative
- mutagenic call (Test System: AMES SALMONELLA TYPHIMURIUM, Strain/Indicator: TA104, Metabolic Activation: RAT, LIVER, S-9, PHENOBARBITAL AND 5,6-BENZOFLAVONE, Method: PREINCUBATION): inactive; negative
- mutagenic call (Test System: AMES SALMONELLA TYPHIMURIUM, Strain/Indicator: TA1535, Metabolic Activation: NONE, Method: PREINCUBATION): inactive; negative
- mutagenic call (Test System: AMES SALMONELLA TYPHIMURIUM, Strain/Indicator: TA1535, Metabolic Activation: RAT, LIVER, S-9, AROCLOR 1254, Method: PREINCUBATION): inactive; negative
- mutagenic call (Test System: CHINESE HAMSTER V-79, Strain/Indicator: V-79 (HGPRT)/8-AZAGUANINE, Metabolic Activation: NONE): inactive; negative
- mutagenic call (Test System: CHINESE HAMSTER V-79, Strain/Indicator: V-79/6-THIOGUANINE, Metabolic Activation: NONE): inactive; negative
- mutagenic call (Test System: E. COLI, Strain/Indicator: WP2 UVRA, Metabolic Activation: NONE, Method: PREINCUBATION): inactive; negative
- mutagenic call (Test System: E. COLI, Strain/Indicator: WP2 UVRA, Metabolic Activation: RAT, LIVER, S-9, AROCLOR 1254, Method: PREINCUBATION): inactive; negative

SMILES: N[C@@H](CSC(Cl)=C(Cl)Cl)C(=O)O
- mutagenic call [5]: active; positive
- mutagenic call [1]: active; positive
- mutagenic call (Test System: AMES SALMONELLA TYPHIMURIUM, Strain/Indicator: TA100, Metabolic Activation: RAT, KIDNEY, S-9, AROCLOR 1254, Method: STANDARD PLATE): active; positive
- mutagenic call (Test System: AMES SALMONELLA TYPHIMURIUM, Strain/Indicator: TA2638, Metabolic Activation: NONE, Method: PREINCUBATION): inactive; negative
